The values that follow come from US11654196B2, “Dosing regimens for echinocandin class compounds” (priority 2012, dated 2023).

Read-outs that look alike come from different tables or passages of the source. *1 amine or outer side, *2 acyl side, *3 side chain or, on linkers, in order; H or OH if unused. Where a SMILES comes first, the peptide text is derived from it. Bridges are numbered along the chain shown (N, C = ends). [ ]: non-standard residue; d: D form. The star is where a group is joined. pTerphenylCO(4''-OnC5H11) = CCCCCOc1ccc(-c2ccc(-c3ccc(C(=O)*)cc3)cc2)cc1; Orn(4R-OH,5R-OH) = O=C([C@H](C[C@@H](O)[C@@H](O)N[*:3])N[*:1])[*:2]; hTyr(3S-OH,4S-OH) = N[C@H](C(=O)O)[C@H](O)[C@@H](O)c1ccc(O)cc1; Pro(3S-OH,4S-Me) = C[C@H]1CN[C@H](C(=O)O)[C@H]1O; Hyp = O=C(O)[C@@H]1C[C@@H](O)CN1

Data set [1] in a line: Pharmacokinetics following intravenous administration in beagle dogs. The settings on record: 1.4 mg/kg IV slow bolus. Format: in vivo. As to the method: Echinocandin class compounds were administered to beagle dogs weighing approximately 6-10 kg. Each compound was dosed at 1.4 mg/kg in aqueous saline (with or without 0.5% Tween) over course of 1-10 minutes. […] The dogs were fasted at least 12 hours prior to each dosing and offered food after the 4-hour blood sample was taken; water was withheld for 1 hour prior to and 4 hours following each dosing event. The dose for each animal was based on its most recent body weight. The test article was injected intravenously via a catheter placed in the cephalic vein as a slow bolus.
Blood was collected via the jugular vein. All blood samples (1 mL each) were collected into K3EDTA tubes. Following blood collection, the samples were immediately inverted several times and were held on wet ice pending centrifugation. The samples were centrifuged within 30 minutes of collection under refrigeration (˜5° C. for 10 minutes at 2000 g) to obtain plasma. The plasma was frozen immediately on dry ice after separation. The plasma samples were stored at approximately ˜70° C. until analysis.
Plasma (100 μL) was precipitated with 400 μL of 0.1% formic acid in acetonitrile containing the internal standard (100 ng/mL pneumocandin). The samples were then capped and vortexed for about 30 seconds followed by centrifugation at 14,000 rpm at room temperature for 10 minutes. Following centrifugation 200 μL of supernatant was transferred to plastic autosampler vials containing 200 μL of 0.1% formic acid in water and vortexed. Samples were then analyzed by LCMSMS.
All pharmacokinetic calculations were performed using WinNonlin version 4.1 (Pharsight Corp) by noncompartmental analysis.

The conditions of data set [2]: Mouse, literature values; cited from earlier work.
For data set [3] the following is noted: Rat, literature values; cited from earlier work.
For data set [4] the following is noted: Man, literature values; cited from earlier work.
For data set [5] the following is noted: Dog, literature values; cited from earlier work.
The conditions of data set [6]: Rabbit, literature values; cited from earlier work.
Data set [7] can be described thus: Storage stability of solutions and lyophilized formulations (HPLC). The data set is classed as physicochemical. As to conditions: for Loss in potency: clear vial, ambient light, 4 months.
Data set [8] in a line: Circulating half-life in mouse. The data set is classed as in vivo. The settings on record: assays conducted by applicant.
Data set [9] can be described thus: Pharmacokinetics in chimpanzee, oral dose. The data set is classed as in vivo. As to the method:
Pharmacokinetic studies were performed in six adult female chimpanzees. Two chimpanzees received 1-mg/kg IV dose of compound 22 formulated in 5% dextrose (60-minute infusion). Two chimpanzees received 10-mg/kg oral dose of compound 22 formulated in 5% citric acid (oral bolus). Two chimpanzees received 1-mg/kg IV dose of anidulafungin formulated as package label (5% dextrose, 60-minute infusion). Plasma samples were collected from all chimps for 10 days to 22 days. PK curves are depicted in FIGS. 16A, 16B, and 18. All pharmacokinetic calculations were performed using WinNonlin version 4.1 (Pharsight Corp) by noncompartmental analysis.

Data set [10] in a line: Dissolution profile of tableted formulation 17. Format: physicochemical. As to the method: A dissolution study of the tablet of formulation 17 was performed using 500 mL of 100 mM Acetate Buffer pH 5.2 as the medium. The method utilized Apparatus 2 with a paddle speed of 50 rpm, a tablet sinker, and the run time was 60 minutes. […] The HPLC method was a gradient method using an Agilent Zorbax Bonus-RP column (250×4.6 mm) (column temperature of 60° C., wavelength of 300 nm, with Mobile Phase A=33 mM sodium pentanesulfonate pH 4.0 and Mobile Phase B=acetonitrile). The samples were injected neat with an injection volume of 15 μL.

`CCCCCOc1ccc(-c2ccc(-c3ccc(C(=O)N[C@H]4C[C@@H](O)[C@@H](O)NC(=O)[C@@H]5[C@@H](O)[C@@H](C)CN5C(=O)[C@H]([C@@H](C)O)NC(=O)[C@H]([C@H](O)[C@@H](O)c5ccc(O)cc5)NC(=O)[C@@H]5C[C@@H](O)CN5C(=O)[C@H]([C@@H](C)O)NC4=O)cc3)cc2)cc1` [Anidulafungin, anidulafungin, reference compound] ({pTerphenylCO(4''-OnC5H11)}-[Orn(4R-OH,5R-OH)]T[Hyp][hTyr(3S-OH,4S-OH)]T[Pro(3S-OH,4S-Me)]; lactam 1-C) showed a Mean clearance in data set [1] of 0.785 mL/min/kg. This compound displayed a T1/2 in data set [1] of 11.6 h. Besides, in data set [1], the “Volume of Distribution” value stood at 0.779 L/kg. In addition, the AUC in data set [1] (dog, in vivo, read-out: AUC) amounted to 27800 ng·h/mL. For the same compound, the Cmax in [1] (dog, in vivo, read-out: Cmax) was 3230 ng/mL. Also, the Half-life in data set [2] was 14 to 20 h; in [3], 18 h; in data set [4] it was 24 to 26 h; in [5], 15 h; in data set [6], 4 to 6 h.
Consider `CC(=O)[O-].CCCCCOc1ccc(-c2ccc(-c3ccc(C(=O)NC4CC(O)C(OCC[N+](C)(C)C)NC(=O)C5C(O)C(C)CN5C(=O)C(C(C)O)NC(=O)C(C(O)C(O)c5ccc(O)cc5)NC(=O)C5CC(O)CN5C(=O)C(C(C)O)NC4=O)cc3)cc2)cc1` (stereo not shown) [Compound 22], for which the Loss in potency result in data set [7] (5% Dextrose Solution (1.3 and 1.1 mg/mL) and 0.9% Sterile Saline Solution (1.3 mg/mL), room temperature) is “less than 5%”; in data set [7] (accelerated aging at 40° C., 5% Dextrose, 20 mM Acetate Buffer pH 4.5, 20 mM Lactate pH 6.0 (3.3 mg/mL)), “less than 5%”. Further, the Stability upon storage result in [7] (as a solid or in solution) is on record as “commercially acceptable stability”. This compound showed an AUC in data set [1] of 48700 ng·h/mL. For the same compound, in data set [1], the Cmax amounted to 1570 ng/mL. Further, the Mean clearance in data set [1] turned out to be 0.301 mL/min/kg. In addition, the T1/2 in data set [1] is 53.1 h. Also, in data set [1], the “Volume of Distribution” value was determined as 1.36 L/kg. Moreover, the Half-life in data set [8] was 44 to 71 h. In data set [9] (chimpanzees, 10-mg/kg oral bolus in 5% citric acid), this compound had an Oral bioavailability of 4.5%. For the same compound, the “Plasma half-life (PO)” value in data set [9] (chimpanzees, 10-mg/kg oral bolus in 5% citric acid, mean of 2 chimps) is 99 h. In addition, the “Oral bioavailability used to calculate human circulating concentrations” value in [9] (values based upon chimpanzee studies) is 5%. For the same compound, the “% Compound 22 Dissolved” value in [10] (tablet of formulation 17, 100 mM acetate buffer pH 5.2, 5 minutes) is 23%; in data set [10] (tablet of formulation 17, 100 mM acetate buffer pH 5.2, 10 minutes), 48%; in data set [10] (tablet of formulation 17, 100 mM acetate buffer pH 5.2, 15 minutes) it was 62%; in data set [10] (tablet of formulation 17, 100 mM acetate buffer pH 5.2, 30 minutes), 93%; in data set [10] (tablet of formulation 17, 100 mM acetate buffer pH 5.2, 45 minutes), 96%; in [10] (tablet of formulation 17, 100 mM acetate buffer pH 5.2, 60 minutes), 97%.
